{"source": "PubChem BioAssay AID2305", "about": "(GlaxoSmithKline (GSK), 2010)", "note": "Values joined by “and” are separate entries in the source; they are usually repeats but may differ in a detail not shown here. Identical values can stand only once."}
{"tested_on": "P. falciparum 3D7 growth, pLDH absorbance", "assay": "blood-stage malaria parasite growth potency – strain 3D7, dose response (AID 2305)"}
{"smiles": "O=C(Nc1cccc(OC2CCN(Cc3ccccc3)CC2)c1)c1ccc([N+](=O)[O-])cc1", "IC50": "660 nM"}
{"smiles": "Cc1ccc(NC(=O)c2ccc(CN3CCCN(Cc4cccc(O)c4)CC3)cc2)cc1F", "IC50": "590 nM"}
{"smiles": "O=C(/C=C/c1ccc(C(F)(F)F)cc1)NCCCCCN1CCCN(C(=O)Nc2cccc(Cl)c2)CC1", "IC50": "990 nM"}
{"smiles": "COc1ccc(S(=O)(=O)NC2CCN(c3cc(C)nc(Nc4cccc(C#N)c4)n3)CC2)cc1", "IC50": "950 nM"}
{"smiles": "COCc1nc(N)nc(N)c1-c1ccc(Cl)c(Cl)c1", "IC50": "1020 nM"}
{"smiles": "CCOC(=O)CNC(=O)N1CCN(C(=O)NCC(=O)OCC)CC1", "IC50": "850 nM"}
{"smiles": "CCn1ncc(Cl)c1CN(C)S(=O)(=O)c1ccc(Br)cc1", "IC50": "1020 nM"}
{"smiles": "COc1ccccc1N1CCN(C(C(=O)NCc2ccc3c(c2)OCO3)c2ccc(C)cc2)CC1", "note": "(stereo not given)", "IC50": "980 nM"}
{"smiles": "Cc1cc(C2CCN(CCCCNC(=O)c3ccc(NC(=O)c4ccc(Cl)cc4)cc3)CC2)c(C)cc1OC(C)C", "IC50": "740 nM"}
{"smiles": "CN1CCN(Cc2nc(-c3ccc4c(Nc5ccc(Oc6ccccc6)cc5)ccnc4c3)cs2)CC1", "IC50": "310 nM"}
{"smiles": "CN1CCN(CCc2ccc(N=Cc3c(=O)[nH]c4ccc5[nH]cccc5c34)cc2)CC1", "IC50": "330 nM"}
{"smiles": "Oc1cc2c(cc1CN1CCN(Cc3ccccc3F)CC1)CCC2", "IC50": "760 nM"}
{"smiles": "COc1ccc(CNC2Cc3ccccc3C2)cc1-c1ccc(S(=O)(=O)NCCN2CCCC2)s1", "IC50": "190 nM"}
{"smiles": "CO[C@@H]1C[C@@H](C(=O)Nc2ccccc2)N(c2ccc(C#N)c3ccccc23)C1", "IC50": "910 nM"}
{"smiles": "O=C(Nc1cccc(-c2cccc(CN3CCCC3)c2)c1)c1ccc(Cl)cc1", "IC50": "680 nM"}
{"smiles": "Cc1cc(-c2ccc(NC(=O)N3CCc4cc(Br)c(N5CCN(C)CC5)cc43)cc2)ccc1C#N", "IC50": "880 nM"}
{"smiles": "CC(C(=O)NC1CCN(c2ccnc(Nc3ccc(F)cc3)n2)C1)c1ccc(Cl)cc1", "note": "(stereo not given)", "IC50": "860 nM"}
{"smiles": "CCOc1ccc(Br)cc1/C=C/C(=O)Nc1ccc(C2CCN(C)CC2)cc1", "IC50": "450 nM"}
{"smiles": "Cc1ccccc1Nc1nc(Nc2ccccc2)c2ccccc2n1", "IC50": "1000 nM"}
{"smiles": "O=C(Cn1c2ccccc2c(=O)c2ccc(Cl)cc21)Nc1ccc(C(F)(F)F)cc1", "IC50": "530 nM"}
{"smiles": "c1cncc(CN2CCCN(c3ccc4c(c3)CCN(Cc3ccc(-c5ncc[nH]5)cc3)CC4)CC2)c1", "IC50": "750 nM"}
{"smiles": "COc1ccc(OC)c(NC(=O)CSc2nc(-c3ccccc3Cl)ns2)c1", "IC50": "830 nM"}
{"smiles": "CNC(=O)C1Cc2c([nH]c3cc(Cl)ccc23)C2(CCN(CCc3ccccc3)CC2)N1", "note": "(stereo not given)", "IC50": "930 nM"}
{"smiles": "Cc1cc2nc(NC3=NC4(c5ccccn5)N=C(Nc5nc6cc(C)c(C)cc6[nH]5)NC4(c4ccccn4)N3)[nH]c2cc1C", "note": "(stereo not given)", "IC50": "680 nM"}
{"smiles": "COc1cc(N)cc2sc(N)nc12", "IC50": "250 nM"}
{"smiles": "CC(=O)N1c2ccccc2C(C)=CC1(C)C", "IC50": "940 nM"}
{"smiles": "O=C(Nc1ccc(C(=O)Oc2ccc(-c3ccccc3)cc2)cc1)N[C@@H](Cc1ccc(O)cc1)C(=O)NC1CCN(Cc2ccc(O)cc2)C1", "note": "(stereo not given in full)", "IC50": "800 nM"}
{"smiles": "COc1cccc2sc(Nc3nc(-c4ccccn4)cs3)nc12", "IC50": "800 nM"}
{"smiles": "COc1cccc2cc(C(=O)N[C@@H](CC(C)C)C(=O)N[C@H](/C=N/NC(=O)N3CCN(C)CC3)CCc3ccccc3)oc12", "IC50": "620 nM"}
{"smiles": "COc1cc2c(cc1OC)C(c1ccc(Br)cc1)CN(C)CC2", "note": "(stereo not given)", "IC50": "940 nM"}
{"smiles": "Cc1[nH]c(C)c(-c2ccc(-c3cccc(Cl)c3)nc2)c(=O)c1Cl", "IC50": "190 nM"}
{"smiles": "CC(=O)c1sc(Cc2nc3ccccc3s2)nc1C", "IC50": "1070 nM"}
{"smiles": "O=C(/C=C/c1ccc(Cl)c(Cl)c1)NCCCCCN1CCC(CCCNC(=O)Nc2ccc(C(F)(F)F)cc2)CC1", "IC50": "870 nM"}
{"smiles": "CC(C)CCN1CCC(Oc2ccc(NC(=O)c3ccc(F)cc3)cc2Cl)CC1", "IC50": "720 nM"}
{"smiles": "O=C(Nc1cc(C(F)(F)F)cc(C(F)(F)F)c1)NC1CCC(CN2CCC(c3c[nH]c4ccccc34)CC2)CC1", "note": "(stereo not given)", "IC50": "810 nM and 460 nM"}
{"smiles": "Cc1cc(N[C@@H](CC(C)C)C(=O)NCCc2ccccc2)nc(NCCc2ccc(F)cc2)n1", "IC50": "770 nM"}
{"smiles": "Cc1cc(OCCN2CCCCC2)ccc1NC(=O)c1cccc2c(=O)n(Cc3ccc(Cl)cc3)cnc12", "IC50": "1060 nM"}
{"smiles": "Cc1nc2ccc3ccc(CNc4ccc(C(=O)CC(CCC(=O)O)C(=O)O)cc4)cc3c2c(=O)[nH]1", "note": "(stereo not given)", "IC50": "40 nM"}
{"smiles": "COCCNC(=O)c1ccc(OC2CCN(Cc3ccc(F)c(F)c3)CC2)c(Cl)c1", "IC50": "1490 nM"}
{"smiles": "NCCCCc1c(-c2ccc(Cl)c(Cl)c2)[nH]c2ccc(Cl)cc12", "IC50": "910 nM"}
{"smiles": "Cc1ccc(C2CCN(CCCCNC(=O)c3ccc(NC(=O)c4ccc(Cl)cc4)cc3)CC2)c(OCC(F)(F)F)c1", "IC50": "280 nM"}
{"smiles": "CCC(CC)C(CC(=O)NC(C)(C)CCc1ccccc1OC)Nc1ccc(C#N)c2ccccc12", "note": "(stereo not given)", "IC50": "800 nM"}
{"smiles": "COc1ccc(NC(=O)NC2CCN(c3ccnc4cc(Cl)ccc34)C2)cc1", "note": "(stereo not given)", "IC50": "100 nM"}
{"smiles": "COc1ccc(CC2(c3ccc(F)cc3)N=C(N)N(CCCc3ccc4c(c3)OCO4)C2=O)cc1", "note": "(stereo not given)", "IC50": "740 nM"}
{"smiles": "Cc1cc(O)c(CN(C)Cc2ccc3c(c2)OCCO3)cc1C(C)C", "IC50": "670 nM"}
{"smiles": "Cc1c(NCCCNCc2cc(Cl)cc(Cl)c2Cl)[nH]c2ccccc2c1=O", "IC50": "310 nM"}
{"smiles": "CC(C)COc1ccc(Cl)cc1Cc1ccc(-c2nc3ccc(C(F)(F)F)cc3[nH]2)o1", "IC50": "850 nM"}
{"smiles": "Nc1nnc(-c2ccc(Cl)c(Br)c2)c(N)n1", "IC50": "1040 nM"}
{"smiles": "CCOc1cc(C(=O)N[C@@H](Cc2ccccc2)[C@H](O)CNCc2cc(OC)cc(OC)c2)cc(N2CCCCS2(=O)=O)c1", "IC50": "520 nM"}
{"smiles": "CCOc1cc(C(=O)NCc2ccc(Cl)c(Cl)c2)ccc1-c1nc2ccc(Cl)cc2[nH]1", "IC50": "800 nM"}
